# Entries after “also recorded” stand apart in the source; their conditions may differ.
# Test system: phenylquinone-induced muscular writhing
# Experiment: Analgesic activity, phenylquinone-writhing test
# Format: in vivo, Swiss albino mice
# Conditions: Mus musculus, sc, mice, 64 mg/kg; read-out: Response % inhibition
# Description: (§1) The compounds of formula (1) have anti-inflammatory, analgesic, hyperglycemic, and/or hypoglycemic properties. […] A. Winter, p.190-202, Int. Symposium on Non-Steroidal Anti-Inflammatory Drugs, Milan, 1964, Excerpta Medica Foundation, Amsterdam. […] J. Pharmac. Chemother. 32, 295 (1968). […] Chem. 3, 99 (1961) and by Barthelmai et al., in Klin. Wchschr. 40, 585 (1962).
# (§2) Initially the activity of the compound tested on an animal was determined at a single dose. If the substance was active at this dose, it was subjected to limited repeat testing. If the presence of activity was confirmed by repetition of the testing, a dose response relation was constructed and the effective dose (ED50) determined. If toxicity was encountered with the initial dose, the dose was reduced until one was reached which was tolerated by the animals tested.
# Substances were administered subcutaneously to five Swiss albino mice, weighing 18 to 22 grams, before determining their activity in the phenylquinone-writhing test (see Collier et al, cited above). The active ingredients were suspended in a solution of physiological saline and "Tween 80™" surfactant. A dose amounting to 10 milliliters of physiological saline solution and active ingredient per kilogram of bodyweight was administered to the mice according to the dosage as set out in Table 2. The test results are shown in Table 2, the compounds tested being compared to Aspirin™ and dextropropoxyphene™.
row,Compound,inhibition in vivo at 64 mg/kg [%]
1,"Cc1ccc(C(=O)NN2CC=CCC2)cc1 [Compound A-78, N-(4-methylphenylcarbonylamino)-1,2,3,6-tetrahydropyridine]",92.4
2,"O=C(NN1CC=CCC1)c1ccc(Cl)cc1 [Compound A-79, N-(4-chlorophenylcarbonylamino)-1,2,3,6-tetrahydropyridine]",33.9

# Same assay, conditions: Mus musculus, sc, mice, 120 mg/kg; read-out: Response % inhibition
row,Compound,inhibition in vivo at 120 mg/kg [%]
1,"O=C(CCc1ccccc1)NN1CC=CCC1 [Compound A-55, N-(phenylethylcarbonylamino)-1,2,3,6-tetrahydropyridine]",42

# Same assay, conditions: Mus musculus, sc, mice, 128 mg/kg; read-out: Response % inhibition
row,Compound,inhibition in vivo at 128 mg/kg [%]
1,"O=C(NN1CC=CCC1)c1cccc[n+]1[O-] [Compound A-36, N-(2-pyridylcarbonylamino-1-oxide)-1,2,3,6-tetrahydropyridine]",55.3
2,"COc1ccc(C(=O)NN2CC=CCC2)cc1 [Compound A-77, N-(4-methoxyphenylcarbonylamino)-1,2,3,6-tetrahydropyridine]",31.4
3,"O=C(NN1CC=CCC1)c1ccc(Cl)c(Cl)c1 [Compound A-80, N-(3,4-dichlorophenylcarbonylamino)-1,2,3,6-tetrahydropyridine]",72

# Same assay, conditions: Mus musculus, sc, mice, 256 mg/kg; read-out: Response % inhibition
row,Compound,inhibition in vivo at 256 mg/kg [%]
1,"CN1CC=C(C(=O)NN2CC=CCC2)CC1 [Compound A-50, N-[4-(1-methyl-1,2,3,6-tetrahydropyridyl)carbonylamino]-1,2,3,6-tetrahydropyridine]",47

# Same assay, conditions: mouse, in vivo
row,Compound,Physiological activity: analgesic (in words)
1,"O=C(NN1CC=CCC1)c1cccc[n+]1[O-] [Compound A-36, N-(2-pyridylcarbonylamino-1-oxide)-1,2,3,6-tetrahydropyridine]",analgesic
2,"CN1CC=C(C(=O)NN2CC=CCC2)CC1 [Compound A-50, N-[4-(1-methyl-1,2,3,6-tetrahydropyridyl)carbonylamino]-1,2,3,6-tetrahydropyridine]",analgesic
3,"O=C(CCc1ccccc1)NN1CC=CCC1 [Compound A-55, N-(phenylethylcarbonylamino)-1,2,3,6-tetrahydropyridine]",analgesic
4,"COc1ccc(C(=O)NN2CC=CCC2)cc1 [Compound A-77, N-(4-methoxyphenylcarbonylamino)-1,2,3,6-tetrahydropyridine]",analgesic
5,"Cc1ccc(C(=O)NN2CC=CCC2)cc1 [Compound A-78, N-(4-methylphenylcarbonylamino)-1,2,3,6-tetrahydropyridine]",active analgesics; also recorded: analgesic
6,"O=C(NN1CC=CCC1)c1ccc(Cl)cc1 [Compound A-79, N-(4-chlorophenylcarbonylamino)-1,2,3,6-tetrahydropyridine]",analgesic
7,"O=C(NN1CC=CCC1)c1ccc(Cl)c(Cl)c1 [Compound A-80, N-(3,4-dichlorophenylcarbonylamino)-1,2,3,6-tetrahydropyridine]",active analgesics; also recorded: analgesic
8,"N-(benzoylamino)-3(diethylaminocarbonyl)-1,2,3,6-tetrahydropyridine [Compound A-43]",analgesic

# Same assay, conditions: s.c., mice, 128 mg/kg
row,Compound,Response % inhibition [%]
1,"N-(benzoylamino)-3(diethylaminocarbonyl)-1,2,3,6-tetrahydropyridine [Compound A-43]",39.0

# Test system: carrageenan-induced paw edema
# Experiment: Anti-inflammatory activity, carrageenan-induced paw edema
# Set-up: species or system Sprague-Dawley rats
# Conditions: rat, in vivo
# Description: as §1, §2
# Substances were administered subcutaneously to six Sprague-Dawley rats, weighing 100-120 g. A suspension of 0.03% carageenan was injected under the plantar skin of a hind paw. The increase in volume of the inflamed paw was measured 3 and 5 hours after drug administration.
row,Compound,Physiological activity: anti-inflammatory (in words)
1,"O=C(NN1CC=CCC1)c1cccc[n+]1[O-] [Compound A-36, N-(2-pyridylcarbonylamino-1-oxide)-1,2,3,6-tetrahydropyridine]",anti-inflammatory
2,"O=C(CCc1ccccc1)NN1CC=CCC1 [Compound A-55, N-(phenylethylcarbonylamino)-1,2,3,6-tetrahydropyridine]","striking anti-inflammatory action, comparing favourably with the standard compound used"

# Test system: blood glucose
# Experiment: Determination of blood glucose (hyperglycemic / hypoglycemic activity)
# Format: in vivo, Wistar rats
# Conditions: oral, fasted rats, 100 mg/kg, 2 hours
# Description: as §1, §2
# Compounds were suspended in distilled water and were administered orally to overnight-fasted Wistar rats. Capillary blood samples were obtained from the tail at zero, two, and four hours post-treatment and the sera derived from these samples were analyzed for glucose by spectrophotometric determination of enzymatically produced NADH2 (reduced form of nicotinamide adenine dinucleotide), using the commercial reagent "Escalab G-15™" according to the method described by Holland et al and by Barthelmai et al, both cited above. The test results are shown in Tables 4 and 5, and the ED50 values shown in Table 4 were calculated as the dose of compound which elevated blood glucose levels by 50 percent.
row,Compound,"% change in blood-glucose concentrations, post-treatment 2 hours [%]"
1,"CCCNC(=O)NS(=O)(=O)c1ccc(Cl)cc1 [Chlorpropamide, reference compound]",> -40
2,"COc1ccc(C(=O)NN2CC=CCC2)cc1 [Compound A-77, N-(4-methoxyphenylcarbonylamino)-1,2,3,6-tetrahydropyridine]",-69
3,"Cc1ccc(C(=O)NN2CC=CCC2)cc1 [Compound A-78, N-(4-methylphenylcarbonylamino)-1,2,3,6-tetrahydropyridine]",-73
4,"O=C(NN1CC=CCC1)c1ccc(Cl)c(Cl)c1 [Compound A-80, N-(3,4-dichlorophenylcarbonylamino)-1,2,3,6-tetrahydropyridine]",-50

# Same assay, conditions: oral, fasted rats, 100 mg/kg, 4 hours
row,Compound,"% change in blood-glucose concentrations, post-treatment 4 hours [%]"
1,"CCCNC(=O)NS(=O)(=O)c1ccc(Cl)cc1 [Chlorpropamide, reference compound]",> -40
2,"COc1ccc(C(=O)NN2CC=CCC2)cc1 [Compound A-77, N-(4-methoxyphenylcarbonylamino)-1,2,3,6-tetrahydropyridine]",-26
3,"Cc1ccc(C(=O)NN2CC=CCC2)cc1 [Compound A-78, N-(4-methylphenylcarbonylamino)-1,2,3,6-tetrahydropyridine]",-41
4,"O=C(NN1CC=CCC1)c1ccc(Cl)cc1 [Compound A-79, N-(4-chlorophenylcarbonylamino)-1,2,3,6-tetrahydropyridine]",-26
5,"O=C(NN1CC=CCC1)c1ccc(Cl)c(Cl)c1 [Compound A-80, N-(3,4-dichlorophenylcarbonylamino)-1,2,3,6-tetrahydropyridine]",-50

# Same assay, conditions: rat, in vivo
row,Compound,Physiological activity: hypoglycemic (in words)
1,"COc1ccc(C(=O)NN2CC=CCC2)cc1 [Compound A-77, N-(4-methoxyphenylcarbonylamino)-1,2,3,6-tetrahydropyridine]",potent hypoglycemic activity
2,"Cc1ccc(C(=O)NN2CC=CCC2)cc1 [Compound A-78, N-(4-methylphenylcarbonylamino)-1,2,3,6-tetrahydropyridine]",potent hypoglycemic activity
3,"O=C(NN1CC=CCC1)c1ccc(Cl)cc1 [Compound A-79, N-(4-chlorophenylcarbonylamino)-1,2,3,6-tetrahydropyridine]",potent hypoglycemic activity
4,"O=C(NN1CC=CCC1)c1ccc(Cl)c(Cl)c1 [Compound A-80, N-(3,4-dichlorophenylcarbonylamino)-1,2,3,6-tetrahydropyridine]",potent hypoglycemic activity

# From US4338445A, “N-(Carbonylamino)-tetrahydropyridyl derivatives” (Canadian Patents & Development Limited, priority 1979, dated 1982)
